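Exposure lasted 48 hours, with cells grown in 96-well plates and compounds tested at five concentrations. The concentration for full growth arrest is given as TGI.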
Columns and labels:
Assay in all cases: growth of human tumour cells (NCI), 48 h
MALME-3M melanoma = test system: MALME-3M melanoma
EKVX NSCLC = test system: EKVX NSCLC
OVCAR-8 ovarian = test system: OVCAR-8 ovarian
M19-MEL melanoma = test system: M19-MEL melanoma
SNB-19 CNS = test system: SNB-19 CNS
HT29 colon = test system: HT29 colon
HOP-92 NSCLC = test system: HOP-92 NSCLC
IGROV1 ovarian = test system: IGROV1 ovarian
HCC-2998 colon = test system: HCC-2998 colon
HL-60(TB) leukemia = test system: HL-60(TB) leukemia
OVCAR-3 ovarian = test system: OVCAR-3 ovarian
RXF 393 renal = test system: RXF 393 renal
K-562 leukemia = test system: K-562 leukemia
SNB-78 CNS = test system: SNB-78 CNS
HCT-15 colon = test system: HCT-15 colon
SW-620 colon = test system: SW-620 colon
NCI-H522 lung = test system: NCI-H522 lung
LOX IMVI melanoma = test system: LOX IMVI melanoma
KM20L2 colon = test system: KM20L2 colon
SK-OV-3 ovarian = test system: SK-OV-3 ovarian
HOP-18 NSCLC = test system: HOP-18 NSCLC
SK-MEL-28 melanoma = test system: SK-MEL-28 melanoma
HOP-62 NSCLC = test system: HOP-62 NSCLC
DLD-1 colon = test system: DLD-1 colon
KM12 colon = test system: KM12 colon
A549 NSCLC = test system: A549 NSCLC
NCI-H460 lung = test system: NCI-H460 lung
OVCAR-5 ovarian = test system: OVCAR-5 ovarian
UO-31 renal = test system: UO-31 renal
786-0 renal = test system: 786-0 renal
SNB-75 CNS = test system: SNB-75 CNS
SK-MEL-5 melanoma = test system: SK-MEL-5 melanoma
U251 CNS = test system: U251 CNS
HCT-116 colon = test system: HCT-116 colon
SF-295 CNS = test system: SF-295 CNS
UACC-62 melanoma = test system: UACC-62 melanoma
COLO 205 colon = test system: COLO 205 colon
CAKI-1 renal = test system: CAKI-1 renal
M14 melanoma = test system: M14 melanoma
SK-MEL-2 melanoma = test system: SK-MEL-2 melanoma
DMS 114 small cell lung = test system: DMS 114 small cell lung
SN12C renal = test system: SN12C renal
RPMI-8226 leukemia = test system: RPMI-8226 leukemia
NCI-H226 lung = test system: NCI-H226 lung
SF-539 CNS = test system: SF-539 CNS
ACHN renal = test system: ACHN renal
UACC-257 melanoma = test system: UACC-257 melanoma
SR leukemia = test system: SR leukemia
MOLT-4 leukemia = test system: MOLT-4 leukemia
CCRF-CEM leukemia = test system: CCRF-CEM leukemia
TK-10 renal = test system: TK-10 renal
OVCAR-4 ovarian = test system: OVCAR-4 ovarian
A498 renal = test system: A498 renal
NCI-H23 lung = test system: NCI-H23 lung
DMS 273 small cell lung = test system: DMS 273 small cell lung
XF 498 CNS = test system: XF 498 CNS
SF-268 CNS = test system: SF-268 CNS

Measured: TGI

N#Cc1cccc2c1Nc1ccccc1S2
92.3 µM: HOP-92 NSCLC
> 100 µM: all other assays above

Reference: PubChem BioAssay (NCI)
